For data set [1] the following is noted: mouse tissues; FIGS. 1-5 of US 2013/0064768 A1; cited from earlier work.
The conditions of data set [2]: in vivo; cited from earlier work.
Data set [3] can be described thus: Arterial and venous blood sampling of 18F-TPP+, whole blood to plasma concentration ratio. It counts as in vivo, domestic swine. The method, then:
Pigs were fasted 12 hours prior to induction of anesthesia, sedated with 4.4 mg/kg Telazol, placed on 5% masked isoflurane, intubated, maintained with 1.5% isoflurane and mechanically ventilated. Vital signs were monitored continuously. Vascular access was obtained via the femoral veins for injection of PET radiotracer and iodinated contrast media. An arterio-venous shunt was placed in the left femoral artery for blood withdrawal.
Arterial blood sampling of ^18F-TPP^+ were drawn every 10 seconds for the first 3 minutes, then at 1 minute intervals for 5 minutes, and at increasing intervals until 120 minutes post injection. In two studies, venous several blood samples were also drawn at 5, 10, 15, 30, 60 and 90 minutes for comparison with arterial samples. All blood samples were centrifuged to determine plasma and red cell concentration histories. Concentration ratios of whole blood to plasma were computed.

The nature of data set [4]: Time course of tracer concentration to steady state (FIG. 4, FIG. 11). It counts as in vivo, domestic swine. From the text: Applicants use a few administration methods including a constant infusion, a pulse or bolus injection or a combination of a constant infusion a pulse or bolus injection. To date, most of Applicants work has used the kinetic approach because it carries the complete information available from our measurements. By analyzing the kinetic data (concentration vs time), Applicants can infer the steady state based on the ratio of the tissue concentration to the plasma concentration. […] The addition of the pulse or bolus injection to the constant infusion can shorten the time needed to impose the steady state for TPP^+. In this case both the plasma and myocardial concentrations become constant after about 90 minutes. The two color pictures are from studies in the same pig but measured on different days, one using constant infusion and the other the kinetic protocol. Note the excellent agreement between the two methods.

Data set [5] is described as follows: Dynamic PET/CT with Logan plot, parametric map of 18F-TPP+ volume of distribution Vd. It counts as in vivo, domestic swine. The following applies: pig with experimental tissue injury in LAD territory, FIG. 8. The method, then:
The study cohort consisted of n=9 domestic swine which were divided into two groups, control (n=6) and tissue injury (scar) (n=3). […] Pigs were housed and maintained under the supervision of the Massachusetts General Hospital Animal Care and Use Committee. Studies were conducted serially, one pig at a time, from August 2014 till October 2015. The weight of the pigs at scan averaged 53.1 kg with a range from 30-92 kg.
Pigs were fasted 12 hours prior to induction of anesthesia, sedated with 4.4 mg/kg Telazol, placed on 5% masked isoflurane, intubated, maintained with 1.5% isoflurane and mechanically ventilated. Vital signs were monitored continuously. Vascular access was obtained via the femoral veins for injection of PET radiotracer and iodinated contrast media. […]
PET Scans were performed on a Siemens Biograph PET/CT scanner: A planar x-ray topogram was performed to define the field of view (FOY) with the heart centered for computed tomography (CT), CT-angiogram (CTA) and PET acquisitions. […] Each frame was reconstructed using a filtered back projection algorithm to yield a radioactivity concentration map in units of Bq/cc with 83 slices and a voxel size of 2.14×2.14×3 mm^3.
Dynamic PET data were analyzed using a Logan plot (Logan, Fowler et al. 1990) to produce parametric images of the ^18F-TPP^+ volume of distribution, Vd and reoriented into the short axis projection. […]

A short description of data set [6]: Comparison of myocardial kinetics of TPP+ and Flurpiridaz (FIG. 4). It counts as in vivo. The source says:
FIG. 4 is a graphical illustration depicting comparison of myocardial kinetics of TPP^| and Flurpiridaz. The black line (the top line) depicts Flurpiridaz kinetics; whereas, the red line (the bottom line) depicts TPP^+ kinetics. Concentrations are normalized to remove the effect of injected radioactivity dose.
To provide a direct observation Applicants compared the kinetics of ^18F-TPP^+ to those of ^18F-Flurppiridaz, a tracer with high first pass capillary extraction (E>0.9). […] Thus it is unlikely that TPP^+ can provide useful myocardial flow measurements, per se.

“Also recorded” adds a separate entry of the source. A value given as a limit tells only on which side of the number the result lay.

Consider `CCCCCCCCCC[P+](c1ccccc1)(c1ccccc1)c1ccccc1` [DecylTPP], for which the “reaching a steady state within an hour” value in data set [1] was “none of MitoQ, DecylTPP, FluroUndecylTPP and TPMP reach a steady state”.

On to `COC1=C(OC)C(=O)C(CCCCCCCCCC[P+](c2ccccc2)(c2ccccc2)c2ccccc2)=C(C)C1=O` [MitoQ], for which the “reaching a steady state within an hour” value in data set [1] was “none of MitoQ, DecylTPP, FluroUndecylTPP and TPMP reach a steady state”.

`C[P+](c1ccccc1)(c1ccccc1)c1ccccc1` [TPMP, triphenylmethylphosphonium^+]: the “reaching a steady state within an hour” value in data set [1] is “none of MitoQ, DecylTPP, FluroUndecylTPP and TPMP reach a steady state”.

Consider `CC(C)(C)n1ncc(OCc2ccc(COCCF)cc2)c(Cl)c1=O` [^18F-Flurppiridaz], for which the “first pass capillary extraction E” value in data set [2] is given as > 0.9.

For `[18F]c1ccc([P+](c2ccccc2)(c2ccccc2)c2ccccc2)cc1` [^18F-TPP^+, ^18F-tetraphenylphosphonium], in data set [3] (constant value after injection), the “concentration ratio for whole blood versus plasma” value turned out to be 0.95. For the same compound, in data set [3] (in vivo), the “time after injection at which whole blood versus plasma ratio became constant” value was “about 10 minutes” and the “time the whole blood versus plasma ratio remained constant (duration of measurement)” value is 120 min. Also, the “agreement of venous and arterial samples” value in data set [3] (samples obtained at least 10 minutes after injection) is “good agreement”. Moreover, the “time remaining in the steady state” value in data set [4] (in a subject) is on record as “at least 2 hours”. In addition, the “time to reach a steady state in subject / tissue” value in data set [4] (in vivo tissue, FIG. 4 and FIG. 11) is “within minutes; also recorded: within two hours”. Besides, in data set [4] (intravenous pulse of TPP+ followed by constant infusion, FIG. 11), the “time after which plasma and myocardial concentrations become constant” value was “about 90 minutes”. For the same compound, the “volume of distribution Vd” value in data set [5] (areas in other vascular territories) is 25 mL/cc. The “volume of distribution Vd” value in data set [5] (core of the injury) is recorded as 2 mL/cc. In data set [6], the “accumulation in the myocardium” value is recorded as “accumulates slowly in the myocardium”. Further, in data set [6] (myocardium), the “extraction compared with 18F-Flurppiridaz” value was “much lower” and the “kinetics compared with 18F-Flurppiridaz” value is recorded as “much slower kinetics”.

These data come from patent US11109819B2, “System and method for quantitatively mapping mitochondrial membrane potential” (The General Hospital Corporation, priority 2016, dated 2021).
